These results are taken from patent US20190083495A1, “Methods Of Preventing Or Reducing A Fibrotic Response Using CSF1R Inhibitors” (Massachusetts Institute of Technology, priority 2016, published 2019).

Data set [1] has as its system Peritoneal exudate macrophages. The experiment in a line: Phagocytosis assay with fluorospheres. The class given is cell-based, C57BL/6 mice. The conditions noted are these: macrophages from treated mice, 90 minutes with fluorospheres, vs vehicle. From the text:
(§1) For in vivo wound healing: C57BL/6 mice were anesthetized (same as above) and shaved, and skin incisions 1.5 cm in length were made along the midline. Each incision was then wound clipped shut for both vehicle and daily GW2580-treated C57BL/6 mice. Wound clips were removed and then replaced each imaging day up until day 7 (required to maintain them up until at least this time), after which clips were left off completely. Photos were acquired on days 0, 1, 4, 7, 10, and 14 post-incision. After 14 days, mice were sacrificed, and skin samples were prepared for histological assessment (H&E and Masson's Trichrome) of both vehicle and GW2580 treatment groups. Cross-sections through the incision line were generated to assess the level of in vivo healing following a 14-day treatment regimen. For IP innate immune cell counts, FACS, and phagocytosis assays: cells were isolated by peritoneal lavage with 8 mL DPBS, diluted into RPMI, and then subsequently counted, and aliquoted either for staining and FACS analysis (as described above), or for phagocytosis assays. […] Following appropriate incubation times, samples were read in a black-wall 96-well plate with a Tecan fluorescent-capable Infinite M1000 plate reader.

The subject of data set [2] is C57BL/6 mice. The data set can be described thus: Peritoneal lavage IP immune cell counts and FACS macrophage phenotype. The class given is in vivo.
Experimental: Single-cell suspensions of freshly excised tissues were prepared using a gentleMACS Dissociator (Miltenyi Biotec, Auburn, Calif.) according to the manufacturer's protocol. Single-cell suspensions were prepared in a passive PEB dissociation buffer (1×PBS, pH 7.2, 0.5% BSA, and 2 mM EDTA) and suspensions were passed through 70 μm filters (Cat. #22363548, Fisher Scientific, Pittsburgh, Pa.). […] All tissue and material sample-derived, single-cell populations were then subjected to red blood cell lysis with 5 ml of 1×RBC lysis buffer (Cat. #00-4333, eBioscience, San Diego, Calif., USA) for 5 min at 4° C. The reaction was terminated by the addition of 20 ml of sterile 1×PBS. The cells remaining were centrifuged at 300-400g at 4° C. and resuspended in a minimal volume (˜50 μl) of eBioscience Staining Buffer (cat. #00-4222) for antibody incubation. […] For alpha smooth muscle actin (fibrosis) analysis, additional cell aliquots were also fixed in 1% paraformaldehyde and permeabilized with 0.1% triton X-100 before being stained with Cy3-conjugated anti-mouse αSM actin antibody (1:100) (Sigma Aldrich, St. Louis, Mo.). […]
Data set [3] relates to C57BL/6 mice. The experiment in a line: NanoString expression analysis of mouse cytokines and cytokine receptors. The class given is in vivo. The protocol: For targeted macrophage depletions, clodrosome (200 μL/mouse) (Encapsula Nano Sciences, Nashville, Tenn.) were injected intraperitoneally starting at −3 days (prior to implantation, day 0), and for every 7 days thereafter (so days −3, 4, and 11). To achieve neutrophil depletion, affinity purified anti-Ly6g (Clone 1A8) antibody (250 ug/mouse) (BioLegend, San Diego, Calif.) was administered also starting at day −3, and every 3 days thereafter (except the day of implantation). For the combination therapy, in order to avoid drug-antibody interactions, each agent was administered 4 hours apart from one another. To neutralize secreted CXCL13, anti-CXCL13 antibody (mAB470, R&D Systems) was injected i.p. in sterile 1×PBS at a dose of 100 μg/mouse, once every 3 days, starting 3 days prior to implantation as well. […]
RNAs for mock-implanted (saline) treated controls, or for 500 μm alginate sphere-bearing C57BL/6 mouse strains (n=4/group), including wild type, knockouts, and serially immune depleted wild type mice, were isolated from tissue samples taken at various time points after implantation, as described. […] In general, respective RNAs were quantified, normalized to the appropriate loading concentration (100 ng/μl), and then 500 ng of each sample was processed according to NanoString manufacturer protocols for expression analysis via our customized multiplexed total (known) mouse cytokine and cytokine receptor expression panel, used for both immune strain comparisons with alginate, and material class comparisons just the wild type C57BL/6 strain. […] RNA levels (absolute copy numbers) were obtained following nCounter (NanoString Technologies Inc., Seattle, Wash.) quantification, and group samples were analyzed using nSolver analysis software (NanoString Technologies Inc., Seattle, Wash.).

For data set [4], the system named is C57BL/6 mice. The experiment in a line: In vivo wound healing of skin incisions.
Source text: as §1, with “assays. Peritoneal exudate macrophages isolated by IP lavage from (n=5) mice in each treatment group were immediately plated (400,000 cells/well in a 24-well plate) and incubated with fluorospheres for 90 minutes to determine phagocytic activity. 1 μm orange fluorospheres (540/560) (Cat# F13082, Invitrogen, Carlsbad, Calif.) were added to each well in a volume of 500 μL from an initial dilution of 20 μL into 10 mL. After addition, plates were spun down at 1,000 rpm for 1 min, and then placed in an incubator for 90 minutes to allow IP macrophages time to phagocytose the 1 μm diameter fluorospheres. Following the 90-minute incubation, all wells were fixed with 4% paraformaldehyde and stored at 4 C prior to imaging using a fluorescent and brightfield-capable EVOS microscope (Advanced Microscopy Group).” for “assays.”

The mark [5] stands for this setting: RNA extracts 14 days post-implant, alginate.

Consider `COc1ccc(COc2ccc(Cc3cnc(N)nc3N)cc2OC)cc1` [GW2580], for which, in data set [1], the phagocytic activity result is given as “no significant differences”. For the same molecule, the “IP macrophage phenotype (CD68 & CD11b staining)” value with C57BL/6 mice [2] (peritoneal lavage after 4 and 14 days of daily treatment, vs vehicle) was “shifted (decreased CD68 & CD11b intensities)”. Moreover, in the data set on C57BL/6 mice [2] (vs untreated and vehicle-treated), the “overall cell numbers in the peritoneal exudate” value is “unchanged”. In the data set with C57BL/6 mice [3] (setting [5]), the “expression of macrophage-associated (downstream) factors (FIG. 13F)” value is “inhibited” and the “expression of macrophage-specific factors (FIG. 13D)” value is listed as “inhibited”. In addition, the “expression of non-immune-associated upstream inflammation-associated gene family (FIG. 18B)” value in the data set with C57BL/6 mice [3] (alginate-implanted mice, 14 days) was “decreased back to mock implanted (saline) control levels”. In addition, the “incision site closure at day 7” value with C57BL/6 mice [4] (1.5 cm skin incision, daily treatment, day 7, skin stretched apart) is “shut and not pulling apart”. The “scarring at day 14” value in the data set with C57BL/6 mice [4] (1.5 cm skin incision, daily treatment, day 14) is given as “very little scarring”. Besides, the “wound resolution and healing potential by width and depth measurements (histology)” value in the data set on C57BL/6 mice [4] (day 14 post-incision, vs vehicle) is on record as “no significant (ns) differences”.
